Reference: PubChem BioAssay AID1505 (Sanford-Burnham Center for Chemical Genomics, 2009)
Converted amounts (≈) assume the structure as drawn. The source made the active and inactive calls. No rule for the calls is given here.

Test system: Y. pseudotuberculosis YP126 growth, MIC at 37 C
Test: Y. pseudotuberculosis growth inhibition MIC, strain YP126, 22/37/40 C (AID 1505)

Compound | MIC | MIC (measured here: MIC at 22 C) [µM] | MIC (measured here: MIC at 40 C) [µM]
O=C(Nc1ccc2[nH]ccc2c1)c1cccs1 | 400 µM (inactive) (≈ 96.9 µg/mL) | 400 (≈ 96.9 µg/mL) | 400 (≈ 96.9 µg/mL)
Cc1ccc(CNC(=O)c2ccc([N+](=O)[O-])o2)cc1 | 25 µM (≈ 6.51 µg/mL) | 400 (≈ 104 µg/mL) | < 12
